Results reported in US6737397B1, “Control of cancer growth through the interaction of [MET5]-enkephalin and the zeta receptor” (The Penn State Research Foundation, priority 1996, dated 2004).
Read-outs that look alike come from different tables or passages of the source. No end group written: not given here.

Assays:
ζ-opioid receptor = molecular target: T1, ζ-opioid receptor (Homo sapiens, UniProt Q9NZT2); assay: Competition for binding of [3H][Met5]enkephalin (4.0 nM) in nuclear homogenates of HT-29 human colon tumors; parameters: from tissue; host or cells: HT-29 human colon tumor xenografts grown in athymic nude mice; nuclear (P1) and other subcellular fractions
T1 sequence (Q9NZT2 1-677): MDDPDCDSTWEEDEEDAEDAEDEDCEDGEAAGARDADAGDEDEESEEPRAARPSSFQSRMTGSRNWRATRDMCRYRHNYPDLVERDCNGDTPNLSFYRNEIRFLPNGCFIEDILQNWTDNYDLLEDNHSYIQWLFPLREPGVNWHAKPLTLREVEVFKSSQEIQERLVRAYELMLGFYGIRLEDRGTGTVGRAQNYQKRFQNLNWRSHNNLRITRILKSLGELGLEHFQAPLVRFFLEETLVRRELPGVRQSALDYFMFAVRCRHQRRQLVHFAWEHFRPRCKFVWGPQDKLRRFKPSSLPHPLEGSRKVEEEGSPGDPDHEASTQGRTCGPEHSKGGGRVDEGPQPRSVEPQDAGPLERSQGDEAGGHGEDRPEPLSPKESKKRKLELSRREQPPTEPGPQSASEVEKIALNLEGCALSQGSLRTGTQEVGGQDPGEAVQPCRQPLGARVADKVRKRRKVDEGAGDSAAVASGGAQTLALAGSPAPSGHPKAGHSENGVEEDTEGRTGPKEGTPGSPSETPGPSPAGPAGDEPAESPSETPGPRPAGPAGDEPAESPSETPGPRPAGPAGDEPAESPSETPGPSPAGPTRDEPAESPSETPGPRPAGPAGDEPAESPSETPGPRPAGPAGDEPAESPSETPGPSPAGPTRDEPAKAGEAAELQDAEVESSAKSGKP

HT-29 cells = assay: Growth assay (cell counts) of HT-29 human colon cancer cells in culture; format: cell-based; settings: 48 hr
Description: In some examples, cultures of HT-29 cells were maintained in McCoy's 5A media without fetal calf serum.
(§1) Cells were seeded at equivalent amounts into 75 cm^2 flasks or into 9.6 cm^2 wells (6-well plates, Falcon) and were counted 24 hr later to determine plating efficiency. Drugs or sterile water were added beginning 24 hr after seeding (=0 hours) and both media and drugs were changed daily. All drugs were prepared in sterile water and dilutions represent final concentrations of the compounds. At appropriate times, cells were harvested with 0.05% trypsin/0.53 mM EDTA, centrifuged, and counted with a hemacytometer at 200×. Cell viability was determined by trypan blue staining. At least 2 aliquots/flask or well were counted and 2 flasks or wells/time point/treatment group were sampled.

[1] = tested on: HT-29 human colon cancer cells; assay: HT-29 human colon cancer xenografts in nude mice treated with OGF and/or naloxone
WiDr cells = assay: Growth assay (cell counts) of WiDr human colon cancer cells; format: cell-based
Description: (§2) HT-29, WiDr, and COLO 205 cell lines were obtained from the American Type Culture Collection (Rockville, Md.). HT-29 cells were grown in McCoy's 5A media (modified), WiDr cells in Minimum Essential Media, and COLO 205 cells in RPMI 1640 media; all media contained 10% fetal calf serum, 2 mM […], 1.2% sodium bicarbonate and antibiotics (11 Units/ml penicillin, 10 μg/ml streptomycin, 10 μg/ml neomycin) in a humidified atmosphere of 7% CO2/93% air at 37° C. In some examples, cultures of HT-29 cells were maintained in McCoy's 5A media without fetal calf serum.
as §1
(§3) To examine the ubiquity of opioid activity with respect to colon cancer, two other colon cancer cell lines were investigated: COLO 205 and WiDr.

COLO 205 cells = assay: Growth assay (cell counts) of COLO 205 human colon cancer cells; format: cell-based
Description: as §2, §1, §3

Compound: CSCC[C@H](NC(=O)[C@H](Cc1ccc(OS(=O)(=O)O)cc1)NC(=O)[C@@H](N)CC(=O)O)C(=O)NCC(=O)N[C@@H](Cc1c[nH]c2ccccc12)C(=O)N[C@@H](CCSC)C(=O)N[C@@H](CC(=O)O)C(=O)N[C@@H](Cc1ccccc1)C(N)=O [CCK-8, cholecystokinin octapeptide]
- ability to compete in displacing [3H]-[Met5]-enkephalin binding (ζ-opioid receptor): exhibit ability to compete

Compound: CC[C@]12CCN(CC3CC3)[C@H](C(=O)c3ccc(O)cc31)[C@@H]2C [EKC, ethylketocyclazocine]
- IC50 (ζ-opioid receptor): > 10000 µM
- Ki (ζ-opioid receptor): > 10000 µM
- ability to compete in displacing [3H]-[Met5]-enkephalin binding (ζ-opioid receptor): not competitive

Compound: CSCC[C@H](NC(=O)[C@H](Cc1c[nH]c2ccccc12)NC(=O)CNC(=O)[C@H](Cc1ccc(O)cc1)NC(=O)[C@H](C)NC(=O)[C@H](CCC(=O)O)NC(=O)[C@H](CCC(=O)O)NC(=O)[C@H](CCC(=O)O)NC(=O)[C@H](CCC(=O)O)NC(=O)[C@H](CCC(=O)O)NC(=O)[C@H](CC(C)C)NC(=O)[C@H](Cc1c[nH]c2ccccc12)NC(=O)[C@@H]1CCCN1C(=O)CNC(=O)[C@@H]1CCC(=O)N1)C(=O)N[C@@H](CC(=O)O)C(=O)N[C@@H](Cc1ccccc1)C(N)=O [Gastrin]
- IC50 (ζ-opioid receptor): 0.0775 ± 0.0075 µM
- Ki (ζ-opioid receptor): 0.0596 ± 0.0058 µM

Compound: C[C@H](N)C(=O)NCC(=O)N[C@H]1CSSC[C@@H](C(=O)O)NC(=O)[C@H](CO)NC(=O)[C@H]([C@@H](C)O)NC(=O)[C@H](Cc2ccccc2)NC(=O)[C@H]([C@@H](C)O)NC(=O)[C@H](CCCCN)NC(=O)[C@H](Cc2c[nH]c3ccccc23)NC(=O)[C@H](Cc2ccccc2)NC(=O)[C@H](Cc2ccccc2)NC(=O)[C@H](CC(N)=O)NC(=O)[C@H](CCCCN)NC1=O [Somatostatin]
- IC50 (ζ-opioid receptor): > 10 µM
- Ki (ζ-opioid receptor): > 10 µM

Compound: C=CCN1CC[C@]23c4c5ccc(O)c4O[C@H]2C(=O)CC[C@@]3(O)[C@H]1C5 [naloxone]
- effect of concomitant naloxone on [Met5]-enkephalin inhibition of cell number (HT-29 cells; 10^−6 M each): blocked the inhibitory effects
- effect on cell growth, alone (HT-29 cells; 10^−6 M): no effect on cell growth
- latencies of palpable, visible, or measurable tumors or incidence of cancer versus control mice ([1]; 5 mg/kg OGF with 10 mg/kg naloxone, or 10 mg/kg naloxone alone): No differences
- Latency for measurable tumor appearance, days, range ([1]; 10 mg/kg Nal daily): (10-16) days
- Latency for palpable tumor ([1]; 10 mg/kg Nal daily): 9.3 ± 1.4 days
- Latency for visible tumor ([1]; 10 mg/kg Nal daily): 10.3 ± 1.4 days
- No. of mice with tumors 21 days after inoculation ([1]; 10 mg/kg Nal daily): 4/5
- No. of mice with tumors 50 days after inoculation ([1]; 10 mg/kg Nal daily): 4/5
- tumor volume ([1]; 50 days after inoculation, 10 mg/kg naloxone alone): 1,494±517 mm^3
- influence on growth, alone (WiDr cells; 10^−6 M): no influence on growth
- effect of naloxone on suppressive effects of [Met5]-enkephalin on growth (WiDr cells; 10^−6 M each): eliminated
- influence on growth, alone (COLO 205 cells; 10^−6 M): no influence on growth
- effect of naloxone on suppressive effects of [Met5]-enkephalin on growth (COLO 205 cells; 10^−6 M each): eliminated

Compound: CC[C@H](C)[C@H](NC(=O)[C@H](C)NC(=O)[C@H](CC(N)=O)NC(=O)[C@H](CCCCN)NC(=O)[C@H](Cc1ccccc1)NC(=O)[C@H](CC(C)C)NC(=O)[C@@H](NC(=O)[C@@H](NC(=O)[C@H](CC(C)C)NC(=O)[C@@H]1CCCN1C(=O)[C@@H](NC(=O)[C@H](CCC(N)=O)NC(=O)[C@H](CO)NC(=O)[C@H](CCCCN)NC(=O)[C@H](CCC(=O)O)NC(=O)[C@H](CO)NC(=O)[C@@H](NC(=O)[C@H](CCSC)NC(=O)[C@H](Cc1ccccc1)NC(=O)CNC(=O)CNC(=O)[C@@H](N)Cc1ccc(O)cc1)[C@@H](C)O)[C@@H](C)O)C(C)C)[C@@H](C)O)C(=O)N[C@H](C(=O)N[C@@H](CCCCN)C(=O)N[C@@H](CC(N)=O)C(=O)N[C@@H](C)C(=O)N[C@@H](Cc1ccc(O)cc1)C(=O)N[C@@H](CCCCN)C(=O)N[C@@H](CCCCN)C(=O)NCC(=O)N[C@@H](CCC(=O)O)C(=O)O)[C@@H](C)CC [β-Endorphin, β-endorphin]
- less potent than [Met5]-enkephalin in displacing radiolabeled [Met5]-enkephalin binding (ζ-opioid receptor): 4.3 fold

Compound: SKF-10,047
- ability to compete in displacing [3H]-[Met5]-enkephalin binding (ζ-opioid receptor): not competitive
- IC50 (ζ-opioid receptor; read-out: IC50): 0.795 ± 0.005 µM
- Ki (ζ-opioid receptor; read-out: KI): 0.612 ± 0.004 µM

Compound: YGGFMRGL [[Met^5]enkephalin-Arg^6-Gly^7-Leu^8, [Met^5,Arg^6,Gly^7,Leu^8]-enkephalin]
- IC50 (ζ-opioid receptor): 0.0375 ± 0.0075 µM
- Ki (ζ-opioid receptor): 0.0289 ± 0.0058 µM

Compound: dynorphin A 1-8 [Dynorphin A-(1-8)]
- ability to compete in displacing [3H]-[Met5]-enkephalin binding (ζ-opioid receptor): not competitive
